Source: patent US20210101874A1, “MICROBIOCIDAL OXADIAZOLE DERIVATIVES” (SYNGENTA PARTICIPATIONS AG, priority 2017, published 2021)

Key:
[1] = tested on: Puccinia recondita f. sp. Tritici; assay: Puccinia recondita f. sp. tritici / wheat / leaf disc preventative (brown rust); format: in vivo; settings: foliar, 200 ppm in the applied formulation, wheat leaf segments cv. Kanzler, inoculated 1 day after application, compared to untreated, assessed 7 to 9 days after application, read-out: disease control
Outline: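 Preventative leaf-segment test, cv. Kanzler on agar: spray compound, inoculate with spore suspension 1 d post-application, hold at 19° C./75% rh, 12 h/12 h light cycle. Read-out = % disease control vs untreated check at 7–9 d; 200 ppm in applied formulation.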

Phakopsora pachyrhizi = Phakopsora pachyrhizi / soybean / leaf disc preventative (Asian soybean rust); format: in vivo; settings: foliar, 200 ppm in the applied formulation, soybean leaf disks, inoculated one day after application, compared to untreated, assessed 12 to 14 days after application, read-out: disease control
Method: Leaf disks or leaf segments of various plant species are cut from plants grown in a greenhouse. The cut leaf disks or segments are placed in multiwell plates (24-well format) onto water agar. The leaf disks are sprayed with a test solution before (preventative) or after (curative) inoculation. Compounds to be tested are prepared as DMSO solutions (max. 10 mg/ml) which are diluted to the appropriate concentration with 0.025% Tween20 just before spraying. The inoculated leaf disks or segments are incubated under defined conditions (temperature, relative humidity, light, etc.) according to the respective test system. A single evaluation of disease level is carried out 3 to 14 days after inoculation, depending on the pathosystem. Percent disease control relative to the untreated check leaf disks or segments is then calculated.
Soybean leaf disks are placed on water agar in multiwell plates (24-well format) and sprayed with the formulated test compound diluted in water. One day after application leaf discs are inoculated by spraying a spore suspension on the lower leaf surface. After an incubation period in a climate cabinet of 24-36 hours in darkness at 20° C. and 75% rh leaf disc are kept at 20° C. with 12 h light/day and 75% rh. The activity of a compound is assessed as percent disease control compared to untreated when an appropriate level of disease damage appears in untreated check leaf disks (12 to 14 days after application).
The following compounds at 200 ppm in the applied formulation give at least 80% disease control in this test when compared to untreated control leaf disks under the same conditions, which show extensive disease development.

[2] = tested on: Glomerella lagenarium (Colletotrichum lagenarium); assay: Glomerella lagenarium (Colletotrichum lagenarium) liquid culture / cucumber / preventative (anthracnose); format: cell-based; settings: Colletotrichum orbiculare; 20 ppm in the applied formulation; conidia in PDB nutrient broth, 24° C.; 3 to 4 days after application; compared to untreated; read-out: disease control (inhibition of growth measured photometrically)
Outline: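 Test compound, diluted from DMSO, was mixed in microtiter wells with fungal conidia taken from cryogenic storage and suspended in PDB nutrient broth. After 3 to 4 days at 24 °C, photometric growth measurement gave antifungal activity as a percentage of the untreated control.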

[3] = tested on: Puccinia recondita f. sp. Tritici; assay: Puccinia recondita f. sp. tritici / wheat / leaf disc curative (brown rust); format: in vivo; settings: foliar, 200 ppm in the applied formulation, wheat leaf segments cv. Kanzler, applied 1 day after inoculation, compared to untreated, assessed 6 to 8 days after application, read-out: disease control
Outline: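 Compounds, prepared from DMSO solutions of at most 10 mg/ml and diluted just before spraying, are applied curatively to inoculated Kanzler wheat leaf segments. Segments are incubated at 19° C and 75% RH in a climate cabinet; disease control relative to untreated is evaluated 6 to 8 days later.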

Structure (SMILES)	melting point [°C]	pest or weed control at 200 ppm [1] [%]	pest or weed control at 200 ppm (Phakopsora pachyrhizi) [%]	inhibition at 20 ppm [2] [%]	pest or weed control at 200 ppm [3] [%]
O=S(=O)(C1CC1)N(Cc1ccc(-c2noc(C(F)(F)F)n2)cc1)C1CC1 [Compound 1.2, N-cyclopropyl-N-[[4-[5-(trifluoromethyl)-1,2,4-oxadiazol-3-yl]phenyl]methyl] cyclopropanesulfonamide]	90 to 92	≥ 80	≥ 80	≥ 80	–
CON(Cc1ccc(-c2noc(C(F)(F)F)n2)cc1)S(C)(=O)=O [Compound 1.5, N-methoxy-N-[[4-[5-(trifluoromethyl)-1,2,4-oxadiazol-3-yl]phenyl]methyl] methanesulfonamide]	94 to 96	–	–	≥ 80	≥ 80
CN(C)S(=O)(=O)N(Cc1ccc(-c2noc(C(F)(F)F)n2)cc1)C1CC1 [Compound 1.6, N-(dimethylsulfamoyl)-N-[[4-[5-(trifluoromethyl)-1,2,4-oxadiazol-3-yl]phenyl]methyl] cyclopropanamine]	82 to 84	≥ 80	–	≥ 80	–
O=S(=O)(N1CCOCC1)N(Cc1ccc(-c2noc(C(F)(F)F)n2)cc1)C1CC1 [Compound 1.7, N-cyclopropyl-N-[[4-[5-(trifluoromethyl)-1,2,4-oxadiazol-3-yl]phenyl]methyl] morpholine-4-sulfonamide]	99 to 101	≥ 80	–	≥ 80	–
CON(Cc1ccc(-c2noc(C(F)(F)F)n2)cc1)S(=O)(=O)C1CC1 [Compound 1.9, N-methoxy-N-[[4-[5-(trifluoromethyl)-1,2,4-oxadiazol-3-yl]phenyl]methyl] cyclopropanesulfonamide]	73 to 75	–	–	≥ 80	–
CN(Cc1ccc(-c2noc(C(F)(F)F)n2)cc1)S(=O)(=O)Cc1ccccc1 [Compound 1.14, N-methyl-1-phenyl-N-[[4-[5-(trifluoromethyl)-1,2,4-oxadiazol-3-yl]phenyl]methyl] methanesulfonamide]	109 to 111	≥ 80	–	≥ 80	–
CCCNS(=O)(=O)N(Cc1ccc(-c2noc(C(F)(F)F)n2)cc1)C1CC1 [Compound 1.21, 3-[4-[[cyclopropyl (propylsulfamoyl)amino]methyl]phenyl]-5-(trifluoromethyl)-1,2,4-oxadiazole]	70 to 73	–	–	≥ 80	–
CCCNS(=O)(=O)N(C)Cc1ccc(-c2noc(C(F)(F)F)n2)cc1 [Compound 1.23, 3-[4-[[methyl (propylsulfamoyl)amino]methyl]phenyl]-5-(trifluoromethyl)-1,2,4-oxadiazole]	–	≥ 80	≥ 80	≥ 80	≥ 80
CON(Cc1ccc(-c2noc(C(F)(F)F)n2)c(F)c1)S(C)(=O)=O [Compound 1.101, N-[[3-fluoro-4-[5-(trifluoromethyl)-1,2,4-oxadiazol-3-yl]phenyl]methyl]-N-methoxy-methanesulfonamide]	–	–	≥ 80	≥ 80	≥ 80
CCN(Cc1ccc(-c2noc(C(F)(F)F)n2)c(F)c1)S(C)(=O)=O [Compound 1.102, N-ethyl-N-[[3-fluoro-4-[5-(trifluoromethyl)-1,2,4-oxadiazol-3-yl]phenyl]methyl] methanesulfonamide]	–	≥ 80	≥ 80	≥ 80	≥ 80
CCCS(=O)(=O)Nc1ccc(-c2noc(C(F)(F)F)n2)cc1 [Compound 2.38, N-[4-[5-(trifluoromethyl)-1,2,4-oxadiazol-3-yl]phenyl]propane-1-sulfonamide]	65 to 75	–	≥ 80	≥ 80	–
O=S(=O)(NCc1ccc(-c2noc(C(F)(F)F)n2)cc1F)N1CCCC1 [Compound 3.27, N-[[2-fluoro-4-[5-(trifluoromethyl)-1,2,4-oxadiazol-3-yl]phenyl]methyl] pyrrolidine-1-sulfonamide]	–	≥ 80	–	≥ 80	≥ 80
O=S(=O)(NCc1ccc(-c2noc(C(F)(F)F)n2)cc1F)C1CC1 [Compound 3.29, N-[[2-fluoro-4-[5-(trifluoromethyl)-1,2,4-oxadiazol-3-yl]phenyl]methyl] cyclopropanesulfon-amide]	–	≥ 80	–	≥ 80	≥ 80
O=S(=O)(CC1CCOC1)NCc1ccc(-c2noc(C(F)(F)F)n2)cc1F (stereo not shown) [Compound 3.30, N-[[2-fluoro-4-[5-(trifluoromethyl)-1,2,4-oxadiazol-3-yl]phenyl]methyl]-1-tetrahydrofuran-3-yl-methanesulfonamide]	–	≥ 80	–	≥ 80	≥ 80
O=S(=O)(CC1CC1)NCc1ccc(-c2noc(C(F)(F)F)n2)cc1F [Compound 3.31, 1-cyclopropyl-N-[[2-fluoro-4-[5-(trifluoromethyl)-1,2,4-oxadiazol-3-yl]phenyl]methyl] methanesulfonamide]	–	≥ 80	–	≥ 80	≥ 80
CCN(C(C)c1ccc(-c2noc(C(F)(F)F)n2)cc1)S(C)(=O)=O (stereo not shown) [Compound 4.1, N-ethyl-N-[1-[4-[5-(trifluoromethyl)-1,2,4-oxadiazol-3-yl]phenyl]ethyl] methanesulfonamide]	–	≥ 80	≥ 80	≥ 80	≥ 80
CON(C(C)Cc1ccc(-c2noc(C(F)(F)F)n2)cc1)S(C)(=O)=O (stereo not shown) [Compound 4.2, N-methoxy-N-[1-methyl-2-[4-[5-(trifluoromethyl)-1,2,4-oxadiazol-3-yl]phenyl]ethyl] methanesulfonamide]	–	≥ 80	≥ 80	≥ 80	–

The next lines start with results.

melting point [°C]	Structure (SMILES)	pest or weed control at 200 ppm [1] [%]	pest or weed control at 200 ppm (Phakopsora pachyrhizi) [%]	inhibition at 20 ppm [2] [%]	pest or weed control at 200 ppm [3] [%]
116 to 124	O=S(=O)(NCc1ccc(-c2noc(C(F)(F)F)n2)cc1)c1ccccc1 [Compound 3.1, N-[[4-[5-(trifluoromethyl)-1,2,4-oxadiazol-3-yl]phenyl]methyl] benzenesulfonamide]	≥ 80	–	≥ 80	–
112 to 115	O=S(=O)(NCc1ccc(-c2noc(C(F)(F)F)n2)cc1)c1ccc(F)cc1F [Compound 3.5, 2,4-difluoro-N-[[4-[5-(trifluoromethyl)-1,2,4-oxadiazol-3-yl]phenyl]methyl] benzenesulfonamide]	≥ 80	–	–	–
140 to 144	O=S(=O)(Cc1ccc(Cl)cc1F)NCc1ccc(-c2noc(C(F)(F)F)n2)cc1 [Compound 3.6, 1-(4-chloro-2-fluoro-phenyl)-N-[[4-[5-(trifluoromethyl)-1,2,4-oxadiazol-3-yl]phenyl]methyl] methanesulfonamide]	≥ 80	–	–	–
120 to 123	O=S(=O)(NCc1ccc(-c2noc(C(F)(F)F)n2)cc1)c1ccccc1F [Compound 3.7, 2-fluoro-N-[[4-[5-(trifluoromethyl)-1,2,4-oxadiazol-3-yl]phenyl]methyl] benzenesulfonamide]	≥ 80	≥ 80	≥ 80	–
108 to 110	O=S(=O)(NCc1ccc(-c2noc(C(F)(F)F)n2)cc1)N1CCOCC1 [Compound 3.8, N-[[4-[5-(trifluoromethyl)-1,2,4-oxadiazol-3-yl]phenyl]methyl] morpholine-4-sulfonamide]	≥ 80	–	≥ 80	≥ 80
125 to 135	O=S(=O)(Cc1ccccc1)Nc1ccc(-c2noc(C(F)(F)F)n2)cc1 [Compound 3.34, 1-phenyl-N-[4-[5-(trifluoromethyl)-1,2,4-oxadiazol-3-yl]phenyl]methane-sulfonamide]	–	–	≥ 80	–
